Series [1] in a line: Water solubility. It is filed as physicochemical. The note with it: in water at 23° C., read-out: Water solubility.
Series [2] is described as follows: Stability of solids. The note with it: solid, read-out: Loss of bioactivity on storage at elevated temperatures. It is filed as physicochemical.
Series [3] deals with E. coli A15119. The series is described as follows: Oral PD50 in mice. It is filed as in vivo. The following applies: Escherichia coli, A15119, po, 3.5 h, oral; mice treated at 1 and 3.5 hours post-challenge; read-out: PD50. As to the method:
(§1) Comparative Oral PD50 Values of
(§2) BL-S640 Derivatives in Mice
(§3) *Mice were treated at 1 and 3.5 hours post-challenge.

The subject of series [4] is K. pneumoniae A9977. Description: Oral PD50 in mice. It is filed as in vivo. The note with it: Klebsiella pneumoniae, A9977; oral; mice treated at 1 and 3.5 hours post-challenge; read-out: PD50. As to the method:
as §1, §2, §3

For series [5], the system named is P. mirabilis A9707. Description: Oral PD50 in mice. It is filed as in vivo. The following applies: Proteus mirabilis, mice treated at 1 and 3.5 hours post-challenge. As to the method: as §1, §2, §3
Series [6] concerns S. pyogenes A9604. Description: Oral PD50 in mice. The note with it: Streptococcus pyogenes, mice treated at 1 and 3.5 hours post-challenge. Type of series: in vivo. The procedure:
as §1, §2, §3

Series [7] concerns P. mirabilis A9900. Description: Oral PD50 in mice. Type of series: in vivo. The note with it: oral, mice treated at 1 and 3.5 hours post-challenge.
Series [8] concerns P. mirabilis A9900. The series is described as follows: IM PD50 in mice. It is filed as in vivo. The following applies: Proteus mirabilis.
From the text: Comparative IM PD50 Values of
as §2

Series [9] relates to Str. pneumoniae A9585. The series is described as follows: Antibiotic activity in nutrient broth (MIC). It is filed as cell-based. The following applies: Streptococcus pneumoniae, A9585, inoculum 10^-3 dilution of overnight broth culture; 45% AAB + 5% serum + 50% broth; derivatives adjusted for BL-S640 content. The source says:
(§4) Antibiotic Activity In Nutrient Broth
(§5) * 45% AAB+ 5% serum+ 50% broth listed above.
(§6) ** Dilution of overnight broth culture.
(§7) Antibiotic Spectrum Nutrient Broth
(§8) * 45% AAB + 5% serum + 50% broth
(§9) Antibiotic Spectrum in Nutrient Broth
(§10) *45% AAB + 5% serum + 50% broth listed above.

The test system of series [10] is Str. pyogenes A9604. Description: Antibiotic activity in nutrient broth (MIC). Type of series: cell-based. The note with it: Streptococcus pyogenes, A9604, inoculum 10^-3; 45% AAB + 5% serum + 50% broth; derivatives adjusted for BL-S640 content; read-out: MIC.
From the text: as §4, §5, §6, §7, §8, §9, §10

Series [11] has as its system E. coli A9675. The series is described as follows: Antibiotic activity in nutrient broth (MIC). The following applies: Escherichia coli, A9675. Type of series: cell-based.
From the text: as §4, §6, §7, §9

In series [12] the test system is E. coli Juhl A15119. Description: Antibiotic activity in nutrient broth (MIC). Type of series: cell-based. The following applies: Escherichia coli, JUHLA15119.
From the text: as §4, §6, §7, §9

For series [13], the system named is Ent. cloacae A9656. Description: Antibiotic activity in nutrient broth (MIC). It is filed as cell-based. The following applies: Enterobacter cloacae, A9656, inoculum 10^-4; derivatives adjusted for BL-S640 content.
From the text: as §4, §6, §7, §9

Series [14] has as its system Ent. cloacae A9657. Description: Antibiotic activity in nutrient broth (MIC). Type of series: cell-based. The note with it: Enterobacter cloacae, A9657, inoculum 10^-4; derivatives adjusted for BL-S640 content; read-out: MIC.
From the text: as §4, §6, §7, §9

The test system of series [15] is Ent. cloacae A9659. Description: Antibiotic activity in nutrient broth (MIC). The note with it: Enterobacter cloacae, A9659. It is filed as cell-based.
From the text: as §4, §6, §7, §9

Series [16] deals with K. pneumoniae A15130. The series is described as follows: Antibiotic activity in nutrient broth (MIC). It is filed as cell-based. The following applies: Klebsiella pneumoniae, A15130.
From the text: as §4, §6, §7, §9

Series [17] concerns K. pneumoniae A9977. The series is described as follows: Antibiotic activity in nutrient broth (MIC). It is filed as cell-based. The note with it: Klebsiella pneumoniae.
From the text: as §4, §6, §7, §9

The subject of series [18] is Pr. mirabilis A9900. Description: Antibiotic activity in nutrient broth (MIC). It is filed as cell-based. The note with it: Proteus mirabilis, inoculum 10^-4, derivatives adjusted for BL-S640 content.
From the text: as §4, §6, §7, §9

Series [19] deals with Pr. morganii A15153. Description: Antibiotic activity in nutrient broth (MIC). It is filed as cell-based. The note with it: Morganella morganii, A15153.
From the text: as §4, §6, §7, §9

The subject of series [20] is Ps. aeruginosa A9843A. The series is described as follows: Antibiotic activity in nutrient broth (MIC). It is filed as cell-based. The note with it: Pseudomonas aeruginosa.
From the text: as §4, §6, §7, §9

Series [21] concerns S. aureus BX1633 A9606. Description: Antibiotic activity in nutrient broth (MIC). The note with it: Staphylococcus aureus, derivatives adjusted for BL-S640 content. Type of series: cell-based.
From the text: as §4, §6, §7, §9

The subject of series [22] is S. aureus Meth-Res A15097. The series is described as follows: Antibiotic activity in nutrient broth (MIC). Type of series: cell-based. The note with it: Staphylococcus aureus.
From the text: as §4, §6, §7, §9

For series [23], the system named is S. aureus Smith A9537. The series is described as follows: Antibiotic activity in nutrient broth (MIC). Type of series: cell-based. The note with it: Staphylococcus aureus, SMITHA9537, inoculum 10^-4, derivatives adjusted for BL-S640 content.
From the text: as §4, §6, §7, §9

Series [24] relates to Sal. enteritidis A9531. Description: Antibiotic activity in nutrient broth (MIC). It is filed as cell-based. The note with it: Salmonella enterica, ENTERITIDIS, inoculum 10^-4; derivatives adjusted for BL-S640 content; read-out: MIC.
From the text: as §4, §6, §7, §9

Series [25] deals with Ser. marcescens A20019. The series is described as follows: Antibiotic activity in nutrient broth (MIC). Type of series: cell-based. The note with it: Serratia marcescens, A20019, inoculum 10^-4; derivatives adjusted for BL-S640 content.
From the text: as §4, §6, §7, §9

This note sets out measurements from patent US4026888A, “Certain derivatives of particular 3-thiolated cephalosporins” (priority 1976, dated 1977).

SMILES strings stand for the structures. Values after ≈ are worked out from the molar mass of the structure shown. Some results are limits rather than exact numbers.

`N[C@@H](C(=O)N[C@@H]1C(=O)N2C(C(=O)O)=C(CSc3c[nH]nn3)CS[C@H]12)c1ccc(O)cc1` [7-[D-α-amino-α-(p-hydroxyphenyl)acetamido]-3-(1,2,3-triazol-5-ylthiomethyl)-3-cephem-4-carboxylic acid propylene glycol solvate]: in series [1], the solubility is ~10000 µg/mL. The degraded at 720 h in series [2] (56° C., 1 month) is < 10%. In addition, the degraded at 24 h in series [2] (100° C., 24 hours) was < 6%. In addition, in series [2] (100° C., 48 hours), the degraded at 48 h is < 12%.
Consider `CC1=C(C(=O)O)N2C(=O)[C@@H](NC(=O)[C@H](N)c3ccccc3)[C@H]2SC1` [Cephalexin, reference compound], for which the ED50 came out at 13 mg/kg in [3]; 43 mg/kg in [4]; 50 mg/kg in series [5]; 11 mg/kg in series [6]; 66 mg/kg in [7] (Proteus mirabilis, A9900, po, 3.5 h, read-out: PD50); 50 mg/kg in series [8]. Besides, the PD50 in series [7] amounted to 55 mg./kg./treatment.
As for `CC(=O)OCC1=C(C(=O)O)N2C(=O)[C@@H](NC(=O)Cc3cccs3)[C@H]2SC1` [Cephalothin, reference compound], the minimum inhibitory concentration (MIC) was 0.03 µg/mL in series [9]; 0.03 µg/mL in series [10]; 32 µg/mL (≈ 80.7 µM) in series [11]; 16 µg/mL (≈ 40.4 µM) in series [12]; > 125 µg/mL in series [13]; 8 µg/mL (≈ 20.2 µM) in series [14]. For the same compound, the minimum inhibitory concentration (MIC) in [15] is > 125 µg/mL; in series [16], 32 µg/mL (≈ 80.7 µM); in series [17] it was 1 µg/mL (≈ 2.52 µM); in series [18], 1 µg/mL (≈ 2.52 µM); in series [19], > 125 µg/mL; in series [20] it was > 125 µg/mL. Besides, the minimal inhibitory concentration (MIC) in [21] (BX1633A9606, inoculum 10^-2) was 0.25 µg/mL (≈ 0.631 µM); in series [21] (BX1633A9606, inoculum 10^-3), 0.13 µg/mL (≈ 0.328 µM); in [22], 1 to 16 µg/mL (≈ 2.52 to 40.4 µM); in series [23] (+ 50% serum) it was 0.5 µg/mL; in series [23] (nutrient broth) it was 0.13 µg/mL (≈ 0.328 µM); in series [24] it was 0.25 µg/mL (≈ 0.631 µM). For the same compound, the MIC in series [25] is > 125 µg/mL.
